Results on one compound are retold here after patent US20060246115A1, “Nutritional products for ameliorating symptoms of rheumatoid arthritis” (priority 2005, published 2006).

The subject of test [1] is histological structure of cartilage and bone of arthritic joints. As to the kind of experiment: Experiment 3: histological scoring of joints of CIA mice (H&E). Type of test: in vivo. From the text: Experiment 1 is repeated and the test animals evaluated for various histological changes associated with each control or treatment group. The purpose of this experiment is to show the effect of Boswellia serrata and Phlebodium decumanum extracts and Oxepa® on the histological structure of cartilage and bone in the same experimental model as described above. After again completing the above-described model, the mice are sacrificed 10 days after the arthritis onset by cervical dislocation under light anesthesia. Fore and hind limbs are dissected and the skin removed. Each is then immersed in 4% buffered formaldehyde for 2-3 days. Afterwards, each is treated with decalcificant solution for 2 hours and treated again for 60-90 minutes more. The samples are dehydrated with alcohol solutions of increasing concentrations, embedded in paraffin, cut into 4 μm slices and stain with hematoxilin and eosin (H&E). The following joints are thereafter studied: elbow, radio-cubito-carpo (wrist), carpo-metacarpo and metacarpo-phalange in fore limbs, and knee, tibio-tarso (ankle), tarso-metatarso, metatarso-phalange in hind limbs. Typical alterations of arthritic joints are considered, such as synovial inflammation, pannus formation, cartilage damage and bone destruction, and are scored on a nominal scale from 0 to 3. The scale is defined for each parameter as follows: Synovial inflammation: 0=Absence: normal synovial-periarticular tissue; 1=mild: infiltration of inflammatory cells in the periarticular tissue; 2=moderated: cell infiltration and moderated edema; 3=severe: marked cell infiltration and edema. Pannus formation: None (0), mild (1), moderate (2) or severe (3) proliferation of synovial tissue at the synovium-cartilage junction. Cartilage damage: 0=Absence: normal cartilage; 1=mild: damage of Zone I (external) with slight loss of chondrocytes and/or collagen disruption; 2=moderated: damage of Zone II (internal) with moderate loss of chondrocytes and/or collagen disruption: 3=severe: severe damage of all Zones with multifocal losses of chondrocytes and/or collagen disruption. Subchondral bone destruction: 0=Absence: normal bone; 1=mild: some areas of cortical degradation, few osteoclasts; 2=moderated: clear bone degradation with moderate medular damage, more osteoclasts; 3=severe: intense cortical and medular bone destruction, numerous osteoclasts. The scores of all joints are summed to obtain a general score for each histological parameter and animal. The histopathologist is not aware of the study groups during the evaluation of the samples. Homogeneity of variances are tested by the Bartelett's test. If homogeneity of variances is met, data are analysed by one-way ANOVA. If variances are not homogeneous, non-parametric procedures are used. The analysis is done by the Graph Pad Prism Software version 4.

In test [2] the test system is IL-6. The test is described as follows: Experiment 1: IL-6 ELISA in joint homogenates. Type of test: in vivo, mice. The procedure:
(§1) The following parameters are measured in joint homogenates: antibodies against type II collagen (IgG2a); proinflammatory cytokines: IL-1β and IL-6; counter-regulatory cytokines: IL-10; and Matrix metalloproteinases: MMP-9. Antibodies against type II collagen (IgG2a) are also measured in serum. Cytokines and MMP-9 in homogenized joints are measured by ELISA using commercial kits from BIOTRAK (Amersham Pharmacia Biotech) following the supplier instructions and using joint homogenates without any further dilution.
(In an ELISA, binding on a coated surface is turned into a signal by an enzyme label.)

Test [3] relates to type II collagen-immunized mice (collagen-induced arthritis). The test is described as follows: Experiment 3: CIA in mice, arthritis index, onset and incidence. Type of test: in vivo. Conditions: prednisolone i.p. daily.
The subject of test [4] is antibodies against type II collagen (IgG2a). The test is described as follows: Experiment 1: anti-CII IgG2a ELISA in serum and joint homogenates. Type of test: in vivo, mice. On the procedure: Blood samples are taken from the retroorbital sinus under light anesthesia and the animals are immediately sacrificed by cervical dislocation. Fore and hind limbs are dissected and frozen at −80° C. Blood samples are allowed to cloth for 1 hour at room temperature and the serum is separated from blood cells by centrifugation at 6,500 g for 10 min.
(§2) The following parameters are measured in joint homogenates: antibodies against type II collagen (IgG2a); proinflammatory cytokines: IL-1β and IL-6; counter-regulatory cytokines: IL-10; and Matrix metalloproteinases: MMP-9. Antibodies against type II collagen (IgG2a) are also measured in serum.
Specific anti-CII—IgG2a in joints and serum of mice is determined by ELISA. Briefly, 96-well microtiter plates are coated overnight with CII at 4° C., washed with 0.05% Tween-PBS, blocked with 1% bovine serum albumin-PBS for 2 h at room temperature and then washed again. Samples are diluted with PBS before assay: 1:16000 for serum and 1:50 for homogenized joints. Fifty (50) μL of standards (type II collagen Ab-2, clone 2B1.5, NeoMarkers) from 0 to 500 ng/ml and samples are added to each well in duplicate, and incubated 2 h at 37° C. […] Finally the absorbance is measured in a microplate reader at 405 nm.

Test [5] relates to MMP-9. The test is described as follows: Experiment 1: MMP-9 ELISA in joint homogenates. The format is in vivo, mice. The procedure:
as §1

The subject of test [6] is IL-1β. As to the kind of experiment: Experiment 1: IL-1β ELISA in joint homogenates. Type of test: in vivo, mice. The procedure:
as §2
Cytokines and MMP-9 in homogenized joints are measured by ELISA using commercial kits from BIOTRAK (Amersham Pharmacia Biotech) following the supplier instructions and using joint homogenates without any further dilution.

Test [7] relates to type II collagen-immunized mice (collagen-induced arthritis). The test is described as follows: Experiment 1: collagen-induced arthritis (CIA) in mice, clinical assessment. Conditions: prednisolone 5 mg/kg i.p. daily. Type of test: in vivo. The procedure:
Tests are conducted under a model of rheumatoid arthritis in mice (collagen-induced arthritis or CIA) that shares some similarities with the human disease. The tests evaluate the effect of plant extracts and Oxepa®, on the severity of CIA and concentration of inflammatory mediators.
Seven week-old DBA/1J (H-2^q) male mice (n=105) are purchased from Harlan (Barcelona, Spain) and housed in plastic cages (5 animals each) with free access to food and water.
The procedure followed for the animal immunization is carried out by injecting 100 μl of bovine collagen II emulsion (type II collagen in complete Freund's adjuvant) intradermically in the base of the tail. Collagen is supplied by Chondrex (MDbiosciences, Switzerland) and the emulsion is prepared as follows: collagen is dissolved in 0.05M acetic acid (2 mg/ml) overnight at 4° C. with constant, but gentle stirring and emulsified with Freund's adjuvant (1:1). The Freund's adjuvant is added drop by drop while mixing in a high-speed homogenisator (ultraturrax) at 27,000 rpm. […]
Mice are assessed daily for clinical symptoms of inflammation, and their weights are measured. […]
For the statistical analysis, outliers are removed if they differed from the mean more than three standard deviations. Homogeneity of variances is analysed by Levene's test. […] The classification of arthritic index into categories is analysed by Chi-squared.

The mark [8] stands for this setting: individual mice, sum of scores (0-3) of all joints.

Take `C[C@]12C=CC(=O)C=C1CC[C@@H]1[C@@H]2[C@@H](O)C[C@@]2(C)[C@H]1CC[C@]2(O)C(=O)CO` [prednisolone]: in test [1] (setting [8]), the Bone score stood at 0, the Cartilage score stood at 0, the Inflammation score came out at 0 and the Pannus score is 0. In addition, the “joint appearance, histological slide” value in test [1] (knee, left hind limb, H&E, FIG. 9) is reported as “normal joint”. The “content of IL-6 in joint homogenates versus control” value in test [2] was “lower”. The development of arthritis entry in test [3] was “do not develop arthritis”. Besides, the “IgG2a levels in joint homogenates versus control” value in test [4] (joint homogenates) was “significantly lower”. For the same compound, the “IgG2a levels in serum versus control” value in test [4] (serum) is given as “significantly lower”. Moreover, in test [5], the “content of MMP-9 in joint homogenates versus control” value is “lower”. Further, in test [6], the “content of IL-1β in joint homogenates versus control” value is reported as “lower”. Moreover, the development of arthritis result in test [7] is listed as “do not develop arthritis”.
